The results in this text go back to US10287320B2, “Anti-lymphoma peptides” (Universitetet i Tromsø—Norges Arktiske Universitet, priority 2014, dated 2019).

One data set relates to A20 cells. Kind of data set: MTT cytotoxicity assay against A20 lymphoma cells. The data set is classed as cell-based, Murine. Particulars: for ΔIC50 (difference in activity against A20): compared with peptide 4a; for ΔIC50 on further increase of charge: 4a→5 and 6a→7, A20 cells; for IC50: A20 cells. The protocol: (§1) The first screen against A20 and MRC-5 was done manually, while the lymphoma panel screen were done at Marbio (Tromsø) using an automated platform (Biomek NX, Beckman Coulter). Cells were automatically counted (Z1 Coulter Particle Counter, Beckman Coulter) and the cells seeded out in 96-well plates. The plates were incubated for at least 16 hours before the start of the assay. The growth media was removed and the cells washed once with 100 μL assay media (RPMI-1640). Cells were then treated with 100 μL peptide solution (concentration varying from 500-10 μg/mL) for 4 hrs. Normal assay media and assay media containing 0.1% Triton were used as negative and positive controls, respectively. After this period 10 μL of a MTT solution (5 mg/mL) was added to each well and the plate incubated for a further 2 hrs. Following this 70 μL of the media was carefully removed and 100 μL acidified isopropanol added. The formed formazan crystals were dissolved by agitating the cells with a micropipette and by shaking (30 mins). The absorbance of the reduced MTT (formazan) was read on Versa Max Microplate Reader (Molecular Devices) at 590 nm. All assays, unless mentioned otherwise, were done in triplicate.
(Tetrazolium assays rely on reduction of a dye to a coloured formazan, in cell work by metabolically active cells.)

The test system of the next data set is MRC-5 cells. Kind of data set: MTT cytotoxicity assay against MRC-5 normal fibroblasts (selectivity, SI-1). Format: cell-based, Human. The protocol: The first screen against A20 and MRC-5 was done manually, while the lymphoma panel screen were done at Marbio (Tromsø) using an automated platform (Biomek NX, Beckman Coulter).
Cells were automatically counted (Z1 Coulter Particle Counter, Beckman Coulter) and the cells seeded out in 96-well plates. The plates were incubated for at least 16 hours before the start of the assay.
as §1, with “The” for “The first screen against A20 and MRC-5 was done manually, while the lymphoma panel screen were done at Marbio (Tromsø) using an automated platform (Biomek NX, Beckman Coulter). Cells were automatically counted (Z1 Coulter Particle Counter, Beckman Coulter) and the cells seeded out in 96-well plates. The plates were incubated for at least 16 hours before the start of the assay. The”
During the initial screening process peptide analogues was tested against normal human fibroblasts (SI-1) and the results used to estimate cytotoxicity towards healthy cells surrounding the tumor.

A short description of data set [1]: Cardiovascular toxicity assessment in telemeterized rats. Particulars: IV twice-daily, telemetry -1 to 8 hours. The data set is classed as in vivo, Sprague-Dawley rats. The procedure: Male Sprague-Dawley (Charles River, Portage, Mich.) rats (320-400 g) were instrumented with DSI (St. Paul, Minn.) telemetry transmitters by CorDynamics.
EWL-6 was stored in a freezer set to maintain approximately −20° C. and protected from light. A formulation comprising EWL-6 was prepared at a dose volume of 1 mL/kg/dose in 0.9% sodium chloride for injection, U.S.P., for IV dosing. Doses were filtered through a […] PP filter prior to injection.
Each rat was manually restrained and vehicle or EWL-6 dosed twice-daily intravenously over approximately 1-2 minutes. Daily doses were separated by approximately 4 hours.
Pulse pressure (FIG. 8) and mean arterial pressure (FIG. 9) were recorded for −1 to 8 hours following the first daily dose via telemetry and reported in 1 minute averages from −1 to 8 hours following the first daily dose.

For data set [2], the system named is DU-145 Prostate carcinoma. Format: cell-based. Particulars: 4 h. The procedure: as §1, with “The” for “The first screen against A20 and MRC-5 was done manually, while the lymphoma panel screen were done at Marbio (Tromsø) using an automated platform (Biomek NX, Beckman Coulter). Cells were automatically counted (Z1 Coulter Particle Counter, Beckman Coulter) and the cells seeded out in 96-well plates. The plates were incubated for at least 16 hours before the start of the assay. The”

In a further data set the test system is HT-29 Colon carcinoma. The data set is classed as cell-based. Particulars: 4 h. The procedure:
as §1, with “The” for “The first screen against A20 and MRC-5 was done manually, while the lymphoma panel screen were done at Marbio (Tromsø) using an automated platform (Biomek NX, Beckman Coulter). Cells were automatically counted (Z1 Coulter Particle Counter, Beckman Coulter) and the cells seeded out in 96-well plates. The plates were incubated for at least 16 hours before the start of the assay. The”

The test system of data set [3] is SU-DHL-6 (diffuse large B cell lymphoma). Format: cell-based, Human. The note with it: 16 h. The procedure: as §1, with “Cells were then treated with 100 μL peptide solution (concentration varying from 500-10 μg/mL) for 4 hrs.” left out
A further data set concerns A20 lymphomas. Particulars: mouse, in vivo. The procedure:
A20 tumor cells were harvested, washed in RPMI-1640 and inoculated (i.d.) into the left side of the abdomen in BALB/c mice (5×10^6 cells in 50 μl RPMI-1640 per mouse). When the tumor size reached 20 mm^2 the mice were split into three groups and treated; Group1—nine mice with the vehicle (0.9% NaCl in sterile H2O), Group2a—eight mice where the tumors were treated with peptide 6a, and Group 3a—nine mice where the tumors were treated with peptide 11. Intralesional injections were performed once a day for three consecutive days.
Tumor size was measured three times a week using an electronic caliper and expressed as the area of an ellipse [(maximum dimension/2)×(minimum dimension/2)×[…]. Animals were killed when the tumor exceeded 100 mm^2. Animals were killed also if the tumor had not reached that size but presented ulcerations or the animals developed metastasis.
Survival curves were compared by the log-rank test. Groups were compared using one-way ANOVA test with Tukey's multiple comparison. Differences were considered significant when P<0.05.

Data set [4] concerns Namalawa (Burkitt's lymphoma). Format: cell-based, Human. Particulars: 16 h. The protocol:
as §1

Data set [5] relates to Ramos (Burkitt's lymphoma). Format: cell-based, Human. The note with it: 16 h. The protocol:
as §1

For another data set, the system named is three T-lymphoma lines. Format: cell-based, Human. The note with it: 16 h. The procedure: as §1
Setting [6] is: Table 1, selectivity, normal human fibroblasts (MRC-5) versus A20 lymphoma, MTT.
[7] abbreviates: five most active peptides from the A20 screening, tested against normal human fibroblasts.
Setting [8] is: Table 2, analogues of 6a, MRC-5 fibroblasts versus A20 lymphoma, MTT.
[9] abbreviates: Table 3, MRC-5 fibroblasts versus A20 lymphoma.

Square brackets hold non-standard residues; d marks the D form. Ends that are not written are not given here. Trp(2,5,7-tBu3) = CC(C)(C)c1cc(C(C)(C)C)c2[nH]c(C(C)(C)C)c(C[C@H](N)C(=O)O)c2c1

Turning to “(Tbt)R(Tbt)-GG-RRRRRRR (SEQ ID NO: 17) ([Trp(2,5,7-tBu3)]R[Trp(2,5,7-tBu3)]GGRRRRRRR-NH2; N-terminus assumed; SMILES CC(C)(C)c1cc(C(C)(C)C)c2[nH]c(C(C)(C)C)c(C[C@H](NC(=O)[C@H](CCCNC(=N)N)NC(=O)[C@@H](N)Cc3c(C(C)(C)C)[nH]c4c(C(C)(C)C)cc(C(C)(C)C)cc34)C(=O)NCC(=O)NCC(=O)N[C@@H](CCCNC(=N)N)C(=O)N[C@@H](CCCNC(=N)N)C(=O)N[C@@H](CCCNC(=N)N)C(=O)N[C@@H](CCCNC(=N)N)C(=O)N[C@@H](CCCNC(=N)N)C(=O)N[C@@H](CCCNC(=N)N)C(=O)N[C@@H](CCCNC(=N)N)C(N)=O)c2c1) [Peptide 4c]”, in the data set with A20 cells, the “ΔIC50 (difference in activity against A20)” value is “small and unexpected decrease in activity”. In the data set on MRC-5 cells (setting [6]), this substance gave an SI-1 of 1. The “SI-1 / selectivity” value in the data set with MRC-5 cells (setting [7]) is “almost no selectivity at all”.

“KLAKLAKKLAKLAK-GG-RRRRRRR (SEQ ID NO: 9) [Peptide 1b]” had an SI-1 with MRC-5 cells (setting [6]) of 5. Further, the “SI-1 / selectivity” value with MRC-5 cells (setting [7]) is on record as “low selectivity”.

On to “RWRW-GG-RRRRRRR (SEQ ID NO: 13) (RWRWGGRRRRRRR-NH2) [Peptide 5]”, for which, in the data set on A20 cells, the “ΔIC50 on further increase of charge” value is “≈ 1 μM”.

Take “RWRWRWGGRRRRRRR-NH2 [Peptide 7, RWRWRW-GG-RRRRRRR (SEQ ID NO: 15)]”: the “ΔIC50 on further increase of charge” value with A20 cells is on record as “≈ 1 μM”. For the same substance, the “SI-1 / selectivity” value with MRC-5 cells (16 h) is “higher than 10”. Also, the SI-1 in the data set with MRC-5 cells (setting [6]) turned out to be 12.

On to “W-GG-RRRRRRR (SEQ ID NO: 10) (WGGRRRRRRR-NH2) [Peptide 2]”, for which the “ΔIC50 (difference in activity against A20)” value in the data set with A20 cells worked out at 58 µM.

For “WGRRRRRGWGRRRRGW-NH2 [EWL-6, WGRRRRRGWGRRRRGW (SEQ ID NO: 8)]”, in data set [1], the “mean arterial pressure compared to control” value was “No noticeable difference” and the “pulse pressure compared to control” value is “No noticeable difference”.

Take “WR(Tbt)-GG-RRRRRRR (SEQ ID NO: 16) (WR[Trp(2,5,7-tBu3)]GGRRRRRRR-NH2; N-terminus assumed; SMILES CC(C)(C)c1cc(C(C)(C)C)c2[nH]c(C(C)(C)C)c(C[C@H](NC(=O)[C@H](CCCNC(=N)N)NC(=O)[C@@H](N)Cc3c[nH]c4ccccc34)C(=O)NCC(=O)NCC(=O)N[C@@H](CCCNC(=N)N)C(=O)N[C@@H](CCCNC(=N)N)C(=O)N[C@@H](CCCNC(=N)N)C(=O)N[C@@H](CCCNC(=N)N)C(=O)N[C@@H](CCCNC(=N)N)C(=O)N[C@@H](CCCNC(=N)N)C(=O)N[C@@H](CCCNC(=N)N)C(N)=O)c2c1) [Peptide 4b]”: in the data set on MRC-5 cells (setting [6]), the SI-1 turned out to be 2. Also, in the data set on MRC-5 cells (setting [7]), the “SI-1 / selectivity” value was “almost no selectivity at all”.

For orientation: IC50 means the concentration needed to halve the response being measured. A higher IC50 goes with lower potency. For the substance “WRRRGRRWRGRRRW [Peptide 6c, WRRRGRRWRGRRRW (SEQ ID NO: 22)]”, in the data set on A20 cells (Table 3, MTT, 4 hrs treatment), the IC50 worked out at 6.1 µM. Moreover, the SI-1 in the data set with MRC-5 cells (setting [8]) and in the data set on MRC-5 cells (setting [9]) was more than 100 in each case.

With “WRRRRRWRRRRW-NH2 [Peptide 11, WRRRRRWRRRRW (SEQ ID NO: 23)]”, the half-maximal inhibitory concentration (IC50) in [2] was 69 µM; with HT-29 Colon carcinoma, 70 µM; in [3] it was less than 10 µM; in [4], less than 10 µM; in [5], less than 10 µM; with three T-lymphoma lines, approximately 4.6 µM. The systemic toxic effects result with A20 lymphomas is recorded as “no signs of systemic toxic effects”.

“WRWRW-GG-RRRR (SEQ ID NO: 20) (WRWRWGGRRRR-NH2) [Peptide 10]” came in with an SI-1 in the data set on MRC-5 cells (setting [8]) of more than 23.

“WRWRW-GG-RRRRR (SEQ ID NO: 19) (WRWRWGGRRRRR-NH2) [Peptide 9]” displayed an SI-1 in the data set with MRC-5 cells (setting [8]) of 23.

For the substance “WRWRW-GG-RRRRRR (SEQ ID NO: 18) [Peptide 8]”, the SI-1 in the data set on MRC-5 cells (setting [8]) was 21.

As to “WRWRWGGKKKKKKK [WRWRW-GG-KKKKKKK, WRWRW-GG-KKKKKKK (SEQ ID NO:26)]”, half-maximal inhibition in the data set on A20 cells (as described in Example 1) (IC50) was put at 13.2 µM. This lies in the double-digit micromolar range.

Turning to “WRWRWGGRRRRRRR-NH2 [Peptide 6a, WRWRW-GG-RRRRRRR (SEQ ID NO: 14)]”, the IC50 in data set [3] was less than 10 µM; in data set [4], less than 10 µM; in [5] it was less than 10 µM; in the data set on three T-lymphoma lines, approximately 4.6 µM. Besides, the systemic toxic effects entry in the data set with A20 lymphomas was “no signs of systemic toxic effects”.

In the case of “WWWGGRRRRRRRRR [Peptide 6b, WWWGGRRRRRRRRR (SEQ ID NO: 21)]”, the IC50 in the data set with A20 cells (Table 3, MTT, 4 hrs treatment) was determined as 3.5 µM. In addition, the SI-1 in the data set on MRC-5 cells (setting [8]) and in the data set on MRC-5 cells (setting [9]) was 9 throughout.
